Experimental data published in PubChem BioAssay (NCI).
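Compound exposure: 48 hours, 5 concentrations, 96-well plates. The concentration for full growth arrest is given as TGI.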

What was measured:
Assay in all cases: NCI tumour cell line growth inhibition, 48 h
786-0 renal = test system: 786-0 renal
A498 renal = test system: A498 renal
A549 NSCLC = test system: A549 NSCLC
ACHN renal = test system: ACHN renal
BT-549 breast = test system: BT-549 breast
CAKI-1 renal = test system: CAKI-1 renal
CCRF-CEM leukemia = test system: CCRF-CEM leukemia
COLO 205 colon = test system: COLO 205 colon
DU-145 prostate = test system: DU-145 prostate
EKVX NSCLC = test system: EKVX NSCLC
HCC-2998 colon = test system: HCC-2998 colon
HCT-116 colon = test system: HCT-116 colon
HCT-15 colon = test system: HCT-15 colon
HOP-62 NSCLC = test system: HOP-62 NSCLC
HOP-92 NSCLC = test system: HOP-92 NSCLC
HS 578T breast = test system: HS 578T breast
HT29 colon = test system: HT29 colon
IGROV1 ovarian = test system: IGROV1 ovarian
K-562 leukemia = test system: K-562 leukemia
KM12 colon = test system: KM12 colon
LOX IMVI melanoma = test system: LOX IMVI melanoma
M14 melanoma = test system: M14 melanoma
MALME-3M melanoma = test system: MALME-3M melanoma
MCF7 breast = test system: MCF7 breast
MDA-MB-231 breast = test system: MDA-MB-231 breast
MDA-MB-435 = test system: MDA-MB-435
MDA-N = test system: MDA-N
MOLT-4 leukemia = test system: MOLT-4 leukemia
NCI-H23 lung = test system: NCI-H23 lung
NCI-H460 lung = test system: NCI-H460 lung
NCI-H522 lung = test system: NCI-H522 lung
NCI/ADR-RES ovarian = test system: NCI/ADR-RES ovarian
OVCAR-3 ovarian = test system: OVCAR-3 ovarian
OVCAR-4 ovarian = test system: OVCAR-4 ovarian
OVCAR-5 ovarian = test system: OVCAR-5 ovarian
OVCAR-8 ovarian = test system: OVCAR-8 ovarian
PC-3 prostate = test system: PC-3 prostate
RPMI-8226 leukemia = test system: RPMI-8226 leukemia
RXF 393 renal = test system: RXF 393 renal
SF-268 CNS = test system: SF-268 CNS
SF-539 CNS = test system: SF-539 CNS
SK-MEL-2 melanoma = test system: SK-MEL-2 melanoma
SK-MEL-28 melanoma = test system: SK-MEL-28 melanoma
SK-MEL-5 melanoma = test system: SK-MEL-5 melanoma
SK-OV-3 ovarian = test system: SK-OV-3 ovarian
SN12C renal = test system: SN12C renal
SNB-19 CNS = test system: SNB-19 CNS
SNB-75 CNS = test system: SNB-75 CNS
SR leukemia = test system: SR leukemia
SW-620 colon = test system: SW-620 colon
T-47D breast = test system: T-47D breast
TK-10 renal = test system: TK-10 renal
U251 CNS = test system: U251 CNS
UACC-257 melanoma = test system: UACC-257 melanoma
UACC-62 melanoma = test system: UACC-62 melanoma
UO-31 renal = test system: UO-31 renal
HL-60(TB) leukemia = test system: HL-60(TB) leukemia
NCI-H226 lung = test system: NCI-H226 lung
SF-295 CNS = test system: SF-295 CNS

Measured: TGI

CCOC(=O)C(O)Cc1cnc2ccccc2n1 (centres undefined)
not listed: HL-60(TB) leukemia | NCI-H226 lung | SF-295 CNS
> 100 µM: all other assays above

O=C(O)c1nnsc1-c1csnn1
not listed: HCC-2998 colon
> 100 µM: all other assays above

COC(=O)C1=CO[C@@H](OC2OC(CO)C(O)C(O)C2O)[C@@H]2[C@H](C)[C@@H](O)[C@@H](O)[C@]12O (some centres undefined)
not listed: CCRF-CEM leukemia | K-562 leukemia | NCI-H460 lung | OVCAR-4 ovarian
> 100 µM: all other assays above

Oc1c(Cl)cc(CN(Cc2cc(Cl)c(O)c(Cl)c2)C2CCCCC2)cc1Cl
not listed: CCRF-CEM leukemia | HCC-2998 colon | HL-60(TB) leukemia | NCI-H226 lung
> 100 µM: all other assays above
